Data set [1] can be described thus: Selectivity index, ratio of CC50 for human HEK293T cells to IC50 for antiviral activity against Influenza A virus A/WSN/33 (H1N1) infected in HEK293T cells. To be noted: read-out: Ratio CC50/IC50. The class given is toxicity, cell-based.
Data set [2] in a line: Cytotoxicity against human HEK293T cells assessed as cell viability after 48 hrs by CCK-8 assay. The class given is toxicity, cell-based, HEK-293T.
Data set [3] has as its system Influenza A virus. The data set can be described thus: Antiviral activity against Influenza A virus A/WSN/33 (H1N1) infected in HEK293T cells at 10 uM by Gaussia luciferase reporter assay. The class given is functional. As to conditions: HEK-293T. On the technique in general: In a reporter assay the amount or activity of a reporter protein is the signal.
Data set [4] deals with Influenza A virus. Nature of the data set: Antiviral activity against Influenza A virus A/WSN/33 (H1N1) infected in HEK293T cells by Gaussia luciferase reporter assay. In kind it is functional, organism-based. As to conditions: HEK-293T.

These results are taken from ChEMBL document CHEMBL5143634, “Design, synthesis, and anti-influenza A virus activity evaluation of novel indole containing derivatives of triazole” (Bioorg Med Chem Lett, 2022).

For `Cn1cc(SCc2nnc(SCc3ccccc3OC(F)(F)F)n2-c2c(Cl)cccc2Cl)c2ccccc21`, the selectivity ratio in data set [1] is above 70.9. Also, the CC50 (commonly the concentration giving 50% cytotoxicity) at 48 h in data set [2] was above 100 µM. Further, the inhibition (as a rule, the change of the read-out against control, counted positive when it falls) at 10 µM in the data set on Influenza A virus [3] was above 50%. The IC50 (usually the concentration needed to halve the response being measured) in the data set on Influenza A virus [4] is 1.41 µM.
For `Cn1cc(SCc2nnc(SCc3ccc(Cl)c(F)c3)n2-c2c(Cl)cccc2Cl)c2ccccc21`, in that order: above 14, above 100 µM, above 50% and 7.12 µM.
The matching figures for `Cn1cc(SCc2nnc(SCc3ccccc3Cl)n2-c2c(Cl)cccc2Cl)c2ccccc21`: 6.65, 49.6 µM, above 50% and 7.46 µM.
The matching figures for `Cn1cc(SCc2nnc(SCc3cccc(Cl)c3F)n2-c2c(Cl)cccc2Cl)c2ccccc21`: above 23.8, above 100 µM, above 50% and 4.21 µM.
As for `Cn1cc(SCc2nnc(SCc3ccc(Cl)cc3F)n2-c2c(Cl)cccc2Cl)c2ccccc21`, the selectivity ratio in data set [1] is 7.67. Besides, the CC50 at 48 h in data set [2] was determined as 87.3 µM. For the same compound, the inhibition at 10 µM in the data set with Influenza A virus [3] is above 50%. In addition, in the data set on Influenza A virus [4], the IC50 came out at 11.5 µM.
In the case of `Cn1cc(SCc2nnc(SCc3cc(Cl)ccc3F)n2-c2c(Cl)cccc2Cl)c2ccccc21`, the selectivity ratio in data set [1] is above 35.3. For the same compound, the half-maximal cytotoxic concentration (CC50) at 48 h in data set [2] is above 100 µM. For the same compound, the inhibition at 10 µM in the data set on Influenza A virus [3] was above 50%. The same compound yielded an IC50 in the data set with Influenza A virus [4] of 2.83 µM.
For `Cn1cc(SCc2nnc(SCc3cccc(Cl)c3Cl)n2-c2c(Cl)cccc2Cl)c2ccccc21`, in that order: above 46.7, above 100 µM, above 50% and 2.14 µM.
For `Cn1cc(SCc2nnc(SCc3ccccc3C#N)n2-c2c(Cl)cccc2Cl)c2ccccc21`, in that order: 24.7, 78.6 µM, above 50% and 3.18 µM.
Regarding `Cn1cc(SCc2nnc(SCc3ccc(Cl)cc3Cl)n2-c2c(Cl)cccc2Cl)c2ccccc21`, in data set [1], the selectivity ratio was above 16.2. In data set [2], the CC50 at 48 h is above 100 µM. Besides, the inhibition at 10 µM with Influenza A virus [3] was above 50%. Besides, it took 6.19 µM to reach half-maximal inhibition in the data set with Influenza A virus [4] (IC50).
For `Cn1cc(SCc2nnc(SCc3cc(Cl)ccc3Cl)n2-c2c(Cl)cccc2Cl)c2ccccc21`, in that order: above 19.5, above 100 µM, above 50% and 5.12 µM.
In the case of `Cn1cc(SCc2nnc(S)n2-c2c(Cl)cccc2Cl)c2ccccc21`, in data set [1], the selectivity ratio was above 67.6. In addition, the half-maximal cytotoxic concentration (CC50) at 48 h in data set [2] was above 100 µM. Further, the inhibition at 10 µM in the data set on Influenza A virus [3] was above 50%. This compound came in with an IC50 in the data set with Influenza A virus [4] of 1.48 µM.
For `Cn1cc(SCc2nnc(SCc3c(F)cccc3Cl)n2-c2c(Cl)cccc2Cl)c2ccccc21`, in that order: above 25.4, above 100 µM, above 50% and 3.94 µM.
As for `Cn1cc(SCc2nnc(SCc3ccc(OC(F)(F)F)c(Cl)c3)n2-c2c(Cl)cccc2Cl)c2ccccc21`, in data set [1], the selectivity ratio amounted to 10.4. Further, in data set [2], the CC50 at 48 h was 77.7 µM. The compound also yielded an inhibition at 10 µM with Influenza A virus [3] above 50%. The IC50 in the data set with Influenza A virus [4] amounted to 7.49 µM.
The matching figures for `Cn1cc(SCc2nnc(SCc3cc(C(F)(F)F)ccc3Cl)n2-c2c(Cl)cccc2Cl)c2ccccc21`: 10.6, 53.8 µM, above 50% and 5.1 µM.
The matching figures for `Cn1cc(SCc2nnc(SCc3ccc(Cl)cc3C(F)(F)F)n2-c2c(Cl)cccc2Cl)c2ccccc21`: 21.8, 56.5 µM, above 50% and 2.59 µM.
Turning to `CCOC(=O)c1c(CSc2nnc(CSc3cn(C)c4ccccc34)n2-c2c(Cl)cccc2Cl)n(C)c2cc(Br)c(OC(C)=O)cc12`, the selectivity ratio in data set [1] is above 44. Further, in data set [2], the half-maximal cytotoxic concentration (CC50) at 48 h was above 100 µM. For the same compound, the inhibition at 10 µM in the data set with Influenza A virus [3] was above 50%. Moreover, inhibition with Influenza A virus [4] was half-maximal at 2.27 µM (IC50).
As for `Cn1cc(SCc2nnc(SCc3ccccc3)n2-c2c(Cl)cccc2Cl)c2ccccc21`, in data set [1], the selectivity ratio was above 74.6. Also, the CC50 at 48 h in data set [2] is above 100 µM. For the same compound, the inhibition at 10 µM in the data set on Influenza A virus [3] was above 50%. The compound further yielded an IC50 with Influenza A virus [4] of 1.34 µM.
As to `Cn1cc(SCc2nnc(SCc3c(Cl)cccc3Cl)n2-c2c(Cl)cccc2Cl)c2ccccc21`, the selectivity ratio in data set [1] was above 11. The CC50 at 48 h in data set [2] is above 100 µM. This compound also returned an inhibition at 10 µM in the data set on Influenza A virus [3] above 50%. Also, the half-inhibitory concentration (IC50) with Influenza A virus [4] turned out to be 9.1 µM.
Consider `NC(=O)c1ncn([C@@H]2O[C@H](CO)[C@@H](O)[C@H]2O)n1` [RIBAVIRIN], for which the CC50 at 48 h in data set [2] was above 100 µM. In the data set with Influenza A virus [4], this compound came in with an IC50 of 27.8 µM.
